{
  "source": "patent US6121252A",
  "about": "“Phosphinic acid derivatives” (priority 1998, dated 2000)",
  "key": {"NAALADase": {"target": "T1, NAALADase (Rattus norvegicus, UniProt P70627)", "T1 construct": "synaptosomal protein; from tissue; host or cells: synaptosomes (brain tissue)", "T1 sequence (P70627 whole entry)": "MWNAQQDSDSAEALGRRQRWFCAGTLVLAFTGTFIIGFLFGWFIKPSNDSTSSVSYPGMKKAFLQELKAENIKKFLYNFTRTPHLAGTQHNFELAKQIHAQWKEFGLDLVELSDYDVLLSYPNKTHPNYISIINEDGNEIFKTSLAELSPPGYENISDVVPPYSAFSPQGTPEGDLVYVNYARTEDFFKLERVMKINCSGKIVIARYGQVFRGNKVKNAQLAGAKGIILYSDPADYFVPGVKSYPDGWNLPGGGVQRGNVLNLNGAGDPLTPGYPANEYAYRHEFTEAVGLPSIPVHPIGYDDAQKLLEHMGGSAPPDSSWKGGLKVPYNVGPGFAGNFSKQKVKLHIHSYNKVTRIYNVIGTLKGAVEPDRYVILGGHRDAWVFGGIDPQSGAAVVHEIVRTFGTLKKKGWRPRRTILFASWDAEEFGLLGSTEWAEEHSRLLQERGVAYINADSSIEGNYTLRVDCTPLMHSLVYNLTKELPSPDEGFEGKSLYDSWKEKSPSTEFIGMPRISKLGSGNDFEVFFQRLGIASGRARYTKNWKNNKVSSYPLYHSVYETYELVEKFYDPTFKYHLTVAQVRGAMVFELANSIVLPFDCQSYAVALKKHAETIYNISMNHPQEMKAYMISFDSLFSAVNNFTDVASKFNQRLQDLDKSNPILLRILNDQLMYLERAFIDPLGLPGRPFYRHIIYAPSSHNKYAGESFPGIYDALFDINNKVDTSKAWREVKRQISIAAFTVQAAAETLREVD", "test": "In vitro inhibition of NAALADase activity", "format": "biochemical", "from_the_text": "\"Inhibition\", in the context of enzymes, refers to reversible enzyme inhibition such as competitive, uncompetitive and non-competitive inhibition. Competitive, uncompetitive and non-competitive inhibition can be distinguished by the effects of an inhibitor on the reaction kinetics of an enzyme. […] The affinity between the inhibitor and the enzyme may be measured by the inhibitor constant, Ki, which is defined as: [formula] wherein [E] is the concentration of the enzyme, [I] is the concentration of the inhibitor, and [EI] is the concentration of the enzyme-inhibitor complex formed by the reaction of the enzyme with the inhibitor. Unless otherwise specified, Ki as used herein refers to the affinity between the inventive compounds and NAALADase.\nVarious compounds of formula I were tested for in vitro inhibition of NAALADase activity.\nSubstrate and product were resolved by anion-exchange liquid chromatography. […] Quisqualate (100 μM) was included in parallel assay tubes to confirm the specificity of the measurements."}, "cortical cell cultures [1]": {"system": "cortical cell cultures", "test": "In vitro ischemia assay (KCN/2-DG) in cortical cell cultures", "format": "cell-based, rat", "settings": "Rattus norvegicus, 1 h, read-out: EC50 (50% reduction in glutamate toxicity following an ischemic insult); KCN/2-DG insult, compound during insult and one hour thereafter"}, "LNCaP tumors": {"system": "LNCaP tumors", "test": "In vivo LNCaP tumor model, subcutaneous Compounds 16, 17, 18", "design": "species or system ncr nude male mice", "settings": "for tumor response (in words): 1 and 3 mg/kg s.c.", "description": "Ncr nude male mice, age 5 to 6 weeks, were injected in the right flank with 5×10^6 LNCaP cells in Matrigel™ (0.1 ml total injection volume). Two weeks following cell injection, daily s.c. injections of Compound 16, Compound 17, and Compound 18 were initiated at the following doses: 1 and 3 mg/kg. Controls received 50 mM HEPES s.c. daily. Once tumors were palpable they were measured twice a week.\nResponse to treatment was monitored in two ways. First, mean tumor volume for each group was presented as tumor:control ratio (% T/C) and these values were compared at one point in time. Second, tumor volume versus time was monitored."}, "dopaminergic neurons": {"system": "dopaminergic neurons", "test": "Parkinson's Disease model: MPTP lesioned mice", "format": "in vivo, CD1 mice", "description": "To examine the effect of NAALADase inhibitors on Parkinson's Disease in vivo, MPTP lesioned mice were treated with 2-(phosphonomethyl)pentanedioicacid or a vehicle.\nMPTP lesioning of dopaminergic neurons in mice was used as an animal model of Parkinson's Disease, as described by Steiner, Proc. Natl. Acad. Sci., Vol. 94, pp. 2019-2024 (March 1997). In brief, four week old male CD1 white mice were dosed IP with 30 mg/kg of MPTP for 5 days. […] At 18 days following MPTP treatment, the mice were sacrificed and their brains were removed and sectioned. Immunostaining was performed on saggital and coronal brain sections using anti-tyrosine hydroxylase (TH) antibodies to quantitate survival and recovery of dopaminergic neurons."}, "cortical cell cultures [2]": {"system": "cortical cell cultures", "test": "In vitro toxicity of NAAG in cortical cell cultures", "format": "cell-based", "settings": "Rattus norvegicus, 20 min", "description": "Experiments are performed after 21 days in cultures.\nAt the end of exposure, the cells are washed once with HEPES buffered saline solution and then replaced with serum free modified Earle's basal medium. The cultures are then returned to the CO2 incubator for 24 hour recovery.\nThis control measurement is subtracted from each experimental point."}, "[3]": {"system": "spinal cord organotypic cultures", "test": "ALS model: ChAT activity of spinal cord organotypic cultures with THA", "format": "cell-based, rat", "settings": "Rattus norvegicus, THA alone, 100 μM", "description": "Organotypic cultures were prepared from lumbar spinal cord of 8 day old rats, as described by Rothstein et al., J. Neurochem., Vol. 65, No. 2 (1995), and Rothstein et al., Proc. Natl. Acad. Sci. USA, Vol. 90, pp. 6591-6595 (July 1993). In brief, lumbar spinal cords were removed and sliced into […]-thick-dorsal-ventral sections, and five slices were placed on Millipore CM semipermeable 30-mm-diameter membrane inserts. The inserts were placed on 1 ml of culture medium in 35-mm-diameter culture wells. Culture medium consisted of 50% minimal essential medium and phosphate-free HEPES (25 mM), 25% heat-inactivated horse serum, and 25 Hanks' balanced salt solution (GIBCO) supplemented with D-glucose (25.6 mg/ml) and glutamine (2 mM), at a final pH of 7.2. Antibiotic and antifungal agents were not used. Cultures were incubated at 37° C. in 5% CO2 containing humidified environment (Forma Scientific). Culture medium, along with any added pharmacological agents, was changed twice weekly.\nDrugs were incubated for an additional 13 to 20 days with the 100 μM THA. At the end of this period, cultures were collected assayed for ChAT activity as described below.\nTo determine choline acetyltransferase (CHAT) activity, the spinal cord tissues in each dish (five slices) were pooled and frozen (-75° C.) until assay. CHAT activity was measured radiometrically by described methods using [^3 H]acetyl-CoA (Amersham; Fonnum, 1975). Protein content of tissue homogenate was determined by a Coomassi Protein Assay kit (Pierce, Rockford, Ill.)."}},
  "note": "Peptide text beside a SMILES is read from it.",
  "data": [
    {"compound": "O=C(O)CCC(CP(=O)(O)C(NC(=O)O)c1ccccc1)C(=O)O", "note": "(stereo not shown)", "values": [
      {"measurement": "Ki", "setting": "NAALADase", "result": 2000, "unit": "nM"}
    ]},
    {"compound": "COc1ccc(NCP(=O)(O)CC(CCC(=O)O)C(=O)O)cc1", "note": "(stereo not shown) [drawing 40]", "values": [
      {"measurement": "EC50", "setting": "cortical cell cultures [1]", "result": 9.5, "unit": "nM"}
    ]},
    {"compound": "2-[[[hydroxy(pyridyl)methyl]hydroxyphosphinyl]methyl]pentanedioic acid [Compound 18]", "values": [
      {"measurement": "tumor size, % of control tumors", "setting": "LNCaP tumors; 1 mg/kg s.c.", "result": "54 % of controls"},
      {"measurement": "tumor size, % of control tumors", "setting": "LNCaP tumors; 3 mg/kg s.c.", "result": "58 % of controls"},
      {"measurement": "tumor response (in words)", "setting": "LNCaP tumors", "result": "responded better"}
    ]},
    {"compound": "O=C(O)CCC(CP(=O)(O)CNc1ccc(F)cc1)C(=O)O", "note": "(stereo not shown) [drawing 39]", "values": [
      {"measurement": "EC50", "setting": "cortical cell cultures [1]", "result": 3.1, "unit": "nM"}
    ]},
    {"compound": "O=C(O)CCC(CP(=O)(O)CN1C(=O)c2ccccc2C1=O)C(=O)O", "note": "(stereo not shown)", "values": [
      {"measurement": "Ki", "setting": "NAALADase", "result": 34.5, "unit": "nM"}
    ]},
    {"compound": "COc1ccc(NCP(=O)(O)CC(CCC(=O)O)C(=O)O)cc1", "note": "(stereo not shown) [drawing 30]", "values": [
      {"measurement": "Ki", "setting": "NAALADase", "result": 2.5, "unit": "nM"}
    ]},
    {"compound": "O=C(O)CCC(CP(=O)(O)CNCc1ccccc1)C(=O)O", "note": "(stereo not shown)", "values": [
      {"measurement": "EC50", "setting": "cortical cell cultures [1]", "result": 0.9, "unit": "nM"}
    ]},
    {"compound": "O=C(O)CCC(CP(=O)(O)CNc1ccc(F)cc1)C(=O)O", "note": "(stereo not shown) [drawing 29]", "values": [
      {"measurement": "Ki", "setting": "NAALADase", "result": 9, "unit": "nM"}
    ]},
    {"compound": "Cc1ccc(NCP(=O)(O)CC(CCC(=O)O)C(=O)O)cc1", "note": "(stereo not shown) [drawing 41]", "values": [
      {"measurement": "EC50", "setting": "cortical cell cultures [1]", "result": 11.4, "unit": "nM"}
    ]},
    {"compound": "O=C(O)CCC(CP(=O)(O)Cc1c(F)c(F)c(F)c(F)c1F)C(=O)O", "note": "(stereo not shown) [Compound 16, 2-[[(pentafluorobenzyl)hydroxyphosphinyl]methyl]pentanedioic acid]", "values": [
      {"measurement": "tumor size, % of control tumors", "setting": "LNCaP tumors; 1 mg/kg s.c.", "result": "78 % of controls"},
      {"measurement": "tumor size, % of control tumors", "setting": "LNCaP tumors; 3 mg/kg s.c.", "result": "41.4 % of controls"}
    ]},
    {"compound": "CN1CC=C(c2ccccc2)CC1", "note": "[MPTP]", "values": [
      {"measurement": "loss of functional dopaminergic terminals", "setting": "dopaminergic neurons; MPTP and vehicle vs non-lesioned mice", "result": "approximately 68%"},
      {"measurement": "Percent Striatal TH Innervation Density", "setting": "dopaminergic neurons; MPTP/vehicle, mean ± SEM", "result": "7.82 ± 0.68", "unit": "%"}
    ]},
    {"compound": "CC(=O)N[C@@H](CC(=O)O)C(=O)N[C@@H](CCC(=O)O)C(=O)O", "note": "[NAAG, N-acetyl-aspartyl-glutamate] (Ac-Asp-Glu-OH)", "values": [
      {"measurement": "cytotoxicity at 3 µM", "setting": "cortical cell cultures [2]", "result": 3.51, "unit": "%"},
      {"measurement": "cytotoxicity at 10 µM", "setting": "cortical cell cultures [2]", "result": "4.3 ± 3.12", "unit": "%"},
      {"measurement": "cytotoxicity at 30 µM", "setting": "cortical cell cultures [2]", "result": "11.4 ± 6.17", "unit": "%"},
      {"measurement": "cytotoxicity at 100 µM", "setting": "cortical cell cultures [2]", "result": "12.7 ± 5.5", "unit": "%"},
      {"measurement": "cytotoxicity at 300 µM", "setting": "cortical cell cultures [2]", "result": "13.5 ± 4", "unit": "%"},
      {"measurement": "cytotoxicity at 1000 µM", "setting": "cortical cell cultures [2]", "result": "21.5 ± 4.2", "unit": "%"},
      {"measurement": "cytotoxicity at 3000 µM", "setting": "cortical cell cultures [2]", "result": "45.1 ± 4.96", "unit": "%"}
    ]},
    {"compound": "O=C(O)CCC(CP(=O)(O)C(NCc1ccccc1)c1ccccc1)C(=O)O", "note": "(stereo not shown)", "values": [
      {"measurement": "EC50", "setting": "cortical cell cultures [1]", "result": 1, "unit": "nM"}
    ]},
    {"compound": "CC(C)(C)c1ccc(NCP(=O)(O)CC(CCC(=O)O)C(=O)O)cc1", "note": "(stereo not shown) [drawing 42]", "values": [
      {"measurement": "EC50", "setting": "cortical cell cultures [1]", "result": 34.6, "unit": "nM"}
    ]},
    {"compound": "CC(C)(C)c1ccc(NCP(=O)(O)CC(CCC(=O)O)C(=O)O)cc1", "note": "(stereo not shown) [drawing 32]", "values": [
      {"measurement": "Ki", "setting": "NAALADase", "result": 2, "unit": "nM"}
    ]},
    {"compound": "N[C@H](C(=O)O)[C@H](O)C(=O)O", "note": "(relative stereo) [THA, threohydroxyaspartate]", "values": [
      {"measurement": "activity at 100 µM", "setting": "[3]", "result": "36 ± 12.1", "unit": "%"}
    ]},
    {"compound": "O=C(O)CCC(CP(=O)(O)CNS(=O)(=O)c1ccccc1)C(=O)O", "note": "(stereo not shown)", "values": [
      {"measurement": "Ki", "setting": "NAALADase", "result": 90, "unit": "nM"}
    ]},
    {"compound": "Cc1ccc(NCP(=O)(O)CC(CCC(=O)O)C(=O)O)cc1", "note": "(stereo not shown) [drawing 31]", "values": [
      {"measurement": "Ki", "setting": "NAALADase", "result": 5.2, "unit": "nM"}
    ]},
    {"compound": "O=C(O)CCC(CP(=O)(O)Cc1cccc(C(F)(F)F)c1)C(=O)O", "note": "(stereo not shown) [Compound 17, 2-[[(3-trifluoromethylbenzyl)hydroxyphosphinyl]methyl]pentanedioic acid]", "values": [
      {"measurement": "tumor size, % of control tumors", "setting": "LNCaP tumors; 1 mg/kg s.c.", "result": "74.1 % of controls"},
      {"measurement": "tumor size, % of control tumors", "setting": "LNCaP tumors; 3 mg/kg s.c.", "result": "82 % of controls"},
      {"measurement": "tumor response (in words)", "setting": "LNCaP tumors", "result": "responded minimally"}
    ]}
  ]
}
